Reference: patent publication US6469010B1, “Medicament for the alleviation or treatment of symptom derived from the ischemic disease and compound useful thereof” (Suntory Limited, priority 1995, dated 2002)

Legend:
Na+ channel = test: Veratridine-induced sodium channel activity inhibiting action (membrane potential of synaptosomes, Rhodamine 6G); type: biochemical, Wistar rats; details: 0.1 μM of compound; rat brain synaptosomes, veratridine-induced depolarization
Experimental: Veratridine-induced Sodium Channel Activity Inhibiting Action
The membrane potential of the synaptosomes prepared from the brain membrane of Wistar rats (male, 10 to 12 weeks old) was measured by the method of Aiuchi et al. [T. Aiuchi et al: Biochimi. Biophys. Acta.

DBA/2N mice = test: Audiogenic seizure suppressing action; type: in vivo; details: Mus musculus, ip, 20 min; compound 10 mg/kg, i.p.; audio stimulus after 20 minutes; suppression of average seizure score; read-out: Antiseizure action (suppression rate %)
Experimental: Audiogenic Seizure Suppressing Action
The audiogenic seizure suppressing action of the compounds was evaluated by the method of Sarro et al. [G. B. De Sarro et al.; Br. J. Pharmacol., 93, 247 (1988)]. That is, DBA/2N mice (male, 3 weeks) were administered with the compound dissolved in 10% 2-hydroxypropyl-β-cyclodextrin intraperitoneally. After 20 minutes, a supersonic washer was used to apply audio stimulus of at least 90 dB for one minute. The wild running (WR), clonic seizures (clonus), tonic seizures (tonus), and respiratory arrest (RA) were evaluated. The seizure suppressing action was evaluated from the rate or suppression of the average value of the seizure score found from 0=no response, 1=WR, 2=clonus, 3=tonus, and 4=RA.

Dopamine D2 receptor = biological target: T1, Dopamine D2 receptor (Rattus norvegicus, UniProt P61169); test: Dopamine D2 receptor blocking action ([3H]raclopride binding, striatum membrane fraction); design: species or system Wister male rats; details: 1.0 nM [3H]raclopride, 25° C., one hour
T1 construct: membrane fraction prepared from the striatum of Wister male rats; from tissue; host or cells: rat striatum membrane fraction
Experimental: Dopamine D2 Receptor Blocking Action
57 μl of the membrane fraction prepared from the striatum of Wister male rats,(6 weeks old) was incubated in a buffer at 25° C. for one hour along with the compound and 1.0 nM [^3H) raclopride. A GF/C glass filter (0.1% polyethylene imine treatment) was used for separation of the B and F, then the radioactivity was measured by a beta plate and the effect of the compound was evaluated.

T-type Ca2+ channel = test: T-type calcium channel inhibiting action (whole-cell patch clamp, hippocampal CA1 pyramidal cells); type: cell-based, Wistar rats; details: rat hippocampal CA1 pyramidal cells; suppression of peak current after one minute of application
Experimental: T-Type Calcium Channel Inhibiting Action
The hippocampal CA1 pyramidal cells were isolated from Wistar rats (female, 1 week old) in accordance with the method of Takahashi et al. K. Takahashi et al.; J Pharmacol. Exp; Ther., 256, 169 (1991)] and the T-type calcium current under conditions of a fixed membrane potential was measured using the whole-cell configuration of the pach clamp technique. The effects of the compounds were evaluated from the rate of suppression of the peak current after one minute of application using the concentration clamp method.

Acute toxicity test = details: male, mouse, in vivo, iv, ddY mice, death rate up to 24 hours after administration
Experimental: Medicine was intravenously administered to ddY mice (male, 6 weeks old). The 50 percent lethal dosage LD50 of the acute toxicity was calculated by an ordinary method from the death rate up to 24 hours after administration.

T1 sequence (P61169 whole entry): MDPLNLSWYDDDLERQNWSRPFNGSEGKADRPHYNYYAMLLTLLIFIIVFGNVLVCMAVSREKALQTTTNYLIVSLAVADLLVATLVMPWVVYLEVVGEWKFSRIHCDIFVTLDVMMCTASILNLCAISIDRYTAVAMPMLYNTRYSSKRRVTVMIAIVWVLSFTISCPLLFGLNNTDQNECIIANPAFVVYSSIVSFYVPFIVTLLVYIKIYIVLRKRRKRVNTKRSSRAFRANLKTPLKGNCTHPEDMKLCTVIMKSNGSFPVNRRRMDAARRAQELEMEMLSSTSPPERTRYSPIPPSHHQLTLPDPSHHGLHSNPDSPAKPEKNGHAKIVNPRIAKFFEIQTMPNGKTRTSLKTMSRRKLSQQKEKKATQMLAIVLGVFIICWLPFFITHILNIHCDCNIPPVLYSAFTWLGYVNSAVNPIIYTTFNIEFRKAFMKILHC

Row | SMILES | Antiveratridine action (inhibiting rate %) (Na+ channel) | inhibition in vivo at 10 mg/kg (DBA/2N mice) | IC50 (Dopamine D2 receptor) | IC50 (T-type Ca2+ channel) | LD50 at 24 h (Acute toxicity test)
1 | COc1cc(/C=C/CN2CCN(c3ccc(Cc4ccc(F)cc4)cc3)CC2)ccc1O [Compound 49] | 17.3% | 60% | 0.987 µM | – | –
2 | C(=C\c1ccccc1)/CN1CCC(c2ccc(Oc3ccccc3)cc2)CC1 [Compound 21, (E)-4-(4-phenoxyphenyl)-1-(3-phenyl-2-propenyl)piperidine] | 20.3% | 77.3% | 2.68 µM | 0.8 µM | 40.9 mg/kg
3 | Fc1ccc(Cc2ccc(N3CCN(C/C=C/c4ccccc4)CC3)cc2)cc1 [Compound 47] | 22.9% | 64.1% | 3.96 µM | 2.7 µM | 43.2 mg/kg
4 | OC(COc1ccccc1)CN1CCC(c2ccc(Oc3ccccc3)cc2)CC1 (stereo not shown) [Compound 80, 1-(2-hydroxy-3-phenoxy)propyl-4-(4-phenoxyphenyl)piperidine] | 49.7% | 66.3% | – | 1.9 µM | –
5 | Fc1ccc(/C=C/CN2CCN(c3ccc(Cc4ccc(F)cc4)cc3)CC2)cc1 [Compound 50, (E)-1-[4-(4-fluorophenyl)methylphenyl]-4-[3-(4-fluorophenyl)-2-propenyl]-piperazine] | – | 72% | – | 4.2 µM | –
6 | c1ccc(Oc2ccc(C3CCN(C[C@@H]4C[C@H]4c4ccccc4)CC3)cc2)cc1 (relative stereo) [Compound 26, 4-(phenoxyphenyl)-1-[trans-(2-phenyl)cyclopropylmethyl]piperidine] | 36.5% | 78% | 3.37 µM | 2.8 µM | 32.9 mg/kg
7 | c1ccc(Oc2ccc(C3CCN(CC4(c5ccccc5)OCCO4)CC3)cc2)cc1 [Compound 73, 2-[4-(4-phenoxyphenyl)piperidin-1-yl]methyl-2-phenyl-1,3-dioxolane] | 16.1% | 52.2% | – | 4.6 µM | –
8 | Fc1ccc(Cc2ccc(C3CCN(C/C=C/c4ccccc4)CC3)cc2)cc1 [Compound 32, (E)-4-[4-(4-fluorophenyl)methylphenyl]-1-(3-phenyl-2-propenyl)piperidine] | 33.3% | 94% | 3.36 µM | 0.6 µM | 32.9 mg/kg
9 | OC(CN1CCC(c2ccc(Cc3ccc(F)cc3)cc2)CC1)c1ccccc1 (stereo not shown) [Compound 79, 4-[4-(4-fluorophenyl)methylphenyl]-1-(2-hydroxy-2-phenyl)ethylpiperidine] | 37.1% | 79.8% | – | 3.1 µM | –
10 | COc1ccc(Cc2ccc(C3CCN(C/C=C/c4ccccc4)CC3)cc2)cc1 [Compound 75, 4-[4-(4-methoxyphenyl)methylphenyl]-(E)-1-(3-phenyl-2-propenyl)piperidine] | 55.2% | 99% | – | 1.4 µM | –
